Where two headings read alike, the source gives them in different places.
Tests used:
[1] = Estimated shelf-life of formoterol in the compositions (Arrhenius kinetics); format: physicochemical
[2] = Decomposition kinetics (stability) of formoterol in aqueous solution; format: physicochemical
From the text: In the embodiments herein, the compositions have a pH of about 2.0 to about 8.0. The particular pH of a given composition for long term storage provided herein may be determined empirically using standard stability assays well known to those of skill in the art (see, e.g., the Examples). […] In certain of the above embodiments, the compositions are formulated at a pH of about 4, 4.4 or 4.6 up to about 5.5, 5.7 or 6. In other embodiments, the pH is about 5.0.
In other of the above embodiments, the compositions further contain a buffer, including, but not limited to, citric acid/phosphate, acetate, barbital, borate, Britton-Robinson, cacodylate, citrate, collidine, formate, maleate, Mcilvaine, phosphate, Prideaux-Ward, succinate, citrate-phosphate-borate (Teorell-Stanhagen), veronal acetate, MES (2-(N-morpholino)ethanesulfonic acid), BIS-TRIS (bis(2-hydroxyethyl)imino-tris-(hydroxymethyl)methane), ADA (N-(2-acetamido)-2-iminodiacetic acid), ACES (N-(carbamoylmethyl)-2-aminoethanesulfonaic acid), PIPES (piperazine-N,N′-bis(2-ethanesulfonic acid)), MOPSO (3-(N-morpholino)-2-hydroxypropanesulfonic acid), BIS-TRIS PROPANE (1,3-bis(tris(hydroxy-methyl)methylamino)propane), BES (N,N-bis(2-hydroxyethyl)-2-amino-ethanesulfonaic acid), MOPS (3-(N-morpholino)propanesulfonic acid), TES (N-tris(hydroxymethyl)methyl-2-aminoethanesulfonic acid), HEPES (N-(2-hydroxyethyl)piperazine-N′-(2-eth-anesulfonic acid), DIPSO (3-(N,N-bis(2-hydroxyethyl)amino)-2-hydroxypropan-esulfonicacid), MOBS (4-(N-morpholino)butanesulfonic acid), TAPSO (3-(N-tris(hydroxymethyl)methyl-amino)-2-hydroxypropanesulfonic acid), TRIZMA® (tris(hydroxymethyl-aminomethane), HEPPSO(N-(2-hydroxyethyl)piperazine-N′-(2-hydroxy-propanesulfonic acid), POPSO (piperazine-N,N′-bis(2-hydroxypropane-sulfonic acid)), TEA (triethanolamine), EPPS (N-(2-hydroxyethyl)-piperazine-N′-(3-propanesulfonic acid), TRICINE (N-tris(hydroxy-methyl)methylglycine), GLY-GLY (glycylglycine), BICINE (N,N-bis(2-hydroxyethyl)glycine), HEPBS (N-(2-hydroxyethyl)piperazine-N′-(4-butanesulfonic acid)), TAPS(N-tris(hydroxymethyl)methyl-3-amino-propanesulfonic acid), AMPD (2-amino-2-methyl-1,3-propanediol), and/or any other buffers known to those of skill in the art. In one embodiment, the buffer is citric acid/phosphate buffer, acetate buffer, citrate buffer or phosphate buffer. In another embodiment, the buffer is a citrate buffer (citric acid/sodium citrate). […] Buffer concentrations for use herein include from about 0 or 0.01 mM to about 150 mM, or about 1 mM to about 20 mM. In one embodiment, the buffer concentration is about 5 mM. In another embodiment, the buffer concentration is about 1 mM to about 50 mM, or about 20 mM. […] The particular buffer and buffer concentration of a given composition for long term storage provided herein may be determined empirically using standard stability assays well known to those of skill in the art (see, e.g., the Examples).
Ionic strengths of the compositions provided herein are from about 0 to about 0.4, or from about 0.05 to about 0.16. […] The particular ionic strength of a given composition for long term storage provided herein may be determined empirically using standard stability assays well known to those of skill in the art (see, e.g., the Examples).

[3] = system: patients with reversible obstructive respiratory diseases; conditions: cited from earlier work

## COc1ccc(CC(C)NCC(O)c2ccc(O)c(NC=O)c2)cc1 (racemic) [formoterol, 2-hydroxy-5-((1RS)-1-hydroxy-2-(((1RS)-2-(p-methoxyphenyl)-1-methylethyl)amino)ethyl)formanilide]
[1]; 5° C.
  estimated shelf-life: about 6.2 years
[1]; 25° C.
  estimated shelf-life: about 7.5 months
[2]; aqueous solution, 60° C., buffer concentration 5 mM, ionic strength 0.05
  pH at which decomposition is slowest: about 5.0
[2]; aqueous solution, 60° C., pH 3, buffer concentration 5 mM, ionic strength 0.05
  rate constant (kobs) for decomposition: approximately 0.62 day^−1
[2]; aqueous solution, 60° C., pH 4, buffer concentration 5 mM, ionic strength 0.05
  rate constant (kobs) for decomposition: ~0.11 day⁻¹
[2]; aqueous solution, 60° C., pH 5, buffer concentration 5 mM, ionic strength 0.05
  rate constant (kobs) for decomposition: ~0.044 day⁻¹
[2]; aqueous solution, 60° C., pH 7, buffer concentration 5 mM, ionic strength 0.05
  rate constant (kobs) for decomposition: ~0.55 day⁻¹
[2]; low and approximately neutral pH conditions, buffer concentration 5 mM to 20 mM
  effect of buffer concentration on rate constant of decomposition: increased the rate constant of decomposition significantly
[2]; pH region of about 4.5 to about 5.5, buffer concentration 5 mM to 20 mM
  effect of buffer concentration on rate constant of decomposition: no noticeable differences in rate constant were observed
pH between about 5 and about 7, ambient temperature
  aqueous solubility: approximately 2.2 mg/mL
pH of about 3, ambient temperature
  aqueous solubility: about 4.8 mg/mL
pH of about 4, ambient temperature
  aqueous solubility: approximately 3 mg/mL
Pure water (HPLC water), ambient temperature
  solubility in pure water: approximately 2 mg/mL
[3]
  duration of bronchodilatory effect: greater than 12 hours
  onset of bronchodilatory effect: 1 to 3 min

From US8623851B2 (Mylan Specialty L.P., priority 2001, dated 2014)
